According to the supplement of paper PMC10307832:

What was measured:
Assay in all cases: relative viability (nuclei count vs DMSO), 5 days (fraction); higher = more cells survive
VX-702 + Lapatinib = compound: NC(=O)c1ccc(N(C(N)=O)c2c(F)cccc2F)nc1-c1ccc(F)cc1F [VX-702] + CS(=O)(=O)CCNCc1ccc(-c2ccc3ncnc(Nc4ccc(OCc5cccc(F)c5)c(Cl)c4)c3c2)o1 [Lapatinib] (partner 2 µM)
Summary of the method: (§1)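 Values are medians from duplicate plates. Each reflects relative viability, defined as the nuclei count of treated wells over that of vehicle wells. Lung cancer cell lines in 1536-well plates were pin-tool dosed one day after seeding with one drug alone or with a fixed anchor-drug dose plus five library-drug doses (not always all listed) in √10 steps, then fixed, stained and imaged at 4× after 5 days.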

Dabrafenib + Phenformin = compound: CC(C)(C)c1nc(-c2cccc(NS(=O)(=O)c3c(F)cccc3F)c2F)c(-c2ccnc(N)n2)s1 [Dabrafenib] + N=C(N)NC(=N)NCCc1ccccc1 [Phenformin] (partner 250 µM)
Summary of the method: as §1

VX-702 + Bortezomib = compound: NC(=O)c1ccc(N(C(N)=O)c2c(F)cccc2F)nc1-c1ccc(F)cc1F [VX-702] + CC(C)C[C@H](NC(=O)[C@H](Cc1ccccc1)NC(=O)c1cnccn1)B(O)O [Bortezomib] (partner 0.002 µM)
Summary of the method: as §1

Dabrafenib + Tozasertib = compound: CC(C)(C)c1nc(-c2cccc(NS(=O)(=O)c3c(F)cccc3F)c2F)c(-c2ccnc(N)n2)s1 [Dabrafenib] + Cc1cc(Nc2cc(N3CCN(C)CC3)nc(Sc3ccc(NC(=O)C4CC4)cc3)n2)n[nH]1 [Tozasertib] (partner 0.1 µM)
Summary of the method: as §1

Row | Cell Line | relative viability (VX-702 + Lapatinib; first compound 0.02 µM) | relative viability (VX-702 + Lapatinib; first compound 0.2 µM) | relative viability (VX-702 + Lapatinib; first compound 0.6325 µM) | relative viability (VX-702 + Lapatinib; first compound 2 µM) | relative viability (Dabrafenib + Phenformin; first compound 0.003 µM) | relative viability (Dabrafenib + Phenformin; first compound 0.009487 µM) | relative viability (Dabrafenib + Phenformin; first compound 0.03 µM) | relative viability (Dabrafenib + Phenformin; first compound 0.09487 µM) | relative viability (Dabrafenib + Phenformin; first compound 0.3 µM) | relative viability (VX-702 + Bortezomib; first compound 0.02 µM) | relative viability (VX-702 + Bortezomib; first compound 0.2 µM) | relative viability (VX-702 + Bortezomib; first compound 0.6325 µM) | relative viability (VX-702 + Bortezomib; first compound 2 µM) | relative viability (Dabrafenib + Tozasertib; first compound 0.003 µM) | relative viability (Dabrafenib + Tozasertib; first compound 0.009487 µM) | relative viability (Dabrafenib + Tozasertib; first compound 0.03 µM) | relative viability (Dabrafenib + Tozasertib; first compound 0.09487 µM) | relative viability (Dabrafenib + Tozasertib; first compound 0.3 µM)
1 | NCI-H1650 | 0.808 | 0.469 | 0.818 | 0.907 | 0.347 | 0.424 | 0.457 | 0.495 | 0.631 | 0.195 | 0.207 | 0.189 | 0.185 | 0.524 | 0.563 | 0.408 | 0.419 | 0.384
2 | CAL-12T | 0.61 | 0.603 | 0.611 | 0.664 | 0.584 | 0.51 | 0.601 | 0.572 | 0.677 | 1.02 | 0.928 | 0.885 | 1.06 | 0.377 | 0.424 | 0.423 | 0.328 | 0.349
3 | HCC-15 | 0.837 | 0.838 | 0.857 | 0.928 | 0.461 | 0.461 | 0.528 | 0.401 | 0.382 | 1.07 | 0.929 | 1.09 | 1.05 | 0.602 | 0.506 | 0.355 | 0.398 | 0.386
4 | LC-2-ad | 0.892 | 0.972 | 1.01 | 1.03 | – | 0.594 | 0.587 | 0.517 | 0.621 | 1.08 | 1.08 | 1.12 | 1.22 | – | 0.453 | 0.422 | 0.447 | 0.429
5 | NCI-H520 | 0.809 | 1.05 | 0.798 | 1.05 | 0.431 | 0.638 | 0.289 | 0.442 | 0.612 | 0.4 | 0.663 | 0.479 | 0.677 | 0.431 | 0.486 | – | 0.417 | 0.408
6 | LOU-NH91 | 0.789 | 0.645 | 0.639 | 0.675 | 0.417 | 0.808 | 0.645 | 0.707 | 0.92 | 0.507 | 0.502 | 0.513 | 0.532 | 0.704 | 0.78 | 0.679 | 0.698 | 0.761
7 | NCI-H1355 | 1.09 | 0.984 | 0.998 | 1.28 | – | 0.487 | 0.414 | 0.4 | 0.459 | 1.26 | 1.22 | 1.27 | 1.26 | – | 0.677 | 0.519 | 0.439 | 0.577
8 | LCLC-97TM1 | 0.908 | 0.786 | 1.3 | 0.947 | 0.339 | 0.398 | 0.415 | 0.328 | 0.259 | 0.526 | 0.592 | 0.667 | 0.709 | 0.218 | 0.209 | 0.287 | 0.249 | 0.186
9 | RERF-LC-KJ | 0.891 | 0.801 | 0.888 | 0.933 | 0.432 | 0.435 | 0.43 | 0.447 | 0.546 | 1.18 | 1.06 | 1.2 | 1.28 | 0.484 | 0.593 | 0.581 | 0.456 | 0.591
10 | LU99A | 0.948 | 1.02 | 0.987 | 0.982 | 0.907 | 0.883 | 0.887 | 0.862 | 0.671 | 1.09 | 1.05 | 1.14 | 0.934 | 0.258 | 0.287 | 0.255 | 0.277 | 0.306
11 | NCI-H322M | 0.58 | 0.616 | 0.583 | 0.674 | – | 0.86 | 0.579 | 0.744 | 0.502 | 1.22 | 1.25 | 1.31 | 1.18 | – | 0.49 | 0.373 | 0.446 | 0.436
12 | EMC-BAC-2 | 0.924 | 0.947 | 0.906 | 0.883 | 0.518 | 0.563 | 0.364 | 0.418 | 0.548 | 1.11 | 1.04 | 1.04 | 1.09 | 0.286 | 0.284 | 0.23 | 0.243 | 0.267
13 | HCC-78 | 0.871 | 0.456 | 0.603 | 0.98 | – | 0.866 | 0.704 | 0.614 | 0.667 | 0.314 | 0.521 | 0.472 | 0.506 | – | 0.485 | 0.42 | 0.387 | 0.54
14 | NCI-H2085 | 0.81 | 0.739 | 0.767 | 0.808 | 0.482 | 0.809 | 0.592 | 0.596 | 0.714 | 1.08 | 1.06 | 1.03 | 1 | 0.76 | 0.908 | 0.734 | 0.75 | 0.706
15 | NCI-H1975 | 0.925 | 1.03 | 0.961 | 1.22 | 0.227 | 0.411 | 0.411 | 0.356 | 0.363 | 0.367 | 0.281 | 0.353 | 0.391 | 0.778 | 0.769 | 0.714 | 0.659 | 0.689
16 | COR-L23 | 0.999 | 0.862 | 0.914 | 1.26 | 0.466 | 0.425 | 0.431 | 0.396 | 0.431 | 1.08 | 1.02 | 1.15 | 1.21 | 0.174 | 0.221 | 0.201 | 0.205 | 0.19
17 | NCI-H460 | 0.931 | 0.906 | 1.14 | 0.984 | 0.523 | 0.533 | 0.52 | 0.497 | 0.46 | 1.14 | 1.15 | 1.22 | 1.17 | 0.0459 | 0.482 | 0.436 | 0.374 | 0.375
